According to patent publication US20190167568A1, “Transdermal Drug Delivery System and Method for Using Same” (SENJU USA, INC., priority 2016, published 2019):

Details: pH 8
Source text: In the present invention, the distribution coefficient (octanol/water distribution coefficient) may be adopted as the index of “water soluble” and “liposoluble” in the “water soluble steroid” and the “liposoluble steroid.” The distribution coefficient can be expressed in log D in consideration of the influence of pH, and water solubility is indicated by a minus value while liposolubility is indicated by a plus value.
The distribution coefficient can be obtained according to the method of JIS […] or JIS […].

| Substance | distribution coefficient (log D) |
| --- | --- |
| dexamethasone metasulfobenzoate sodium | −2 |
| prednisolone sodium phosphate | 0 |
